Entries after “also recorded” stand apart in the source; their conditions may differ.
Columns and labels:
[1] = test system: HEK-t cells; format: cell-based; parameters: TDMax (maximum toxicity): unit not given here; details: 24 h incubation, mean ± SEM
Protocol: (§1) In both cases, media were supplemented with 10% FBS, 2 mM L-Glutamine, 1% PenStrep (100 U/mL), 1 mg/mL geneticin (G418), and 0.6 mg/mL zeocin as selection agents. Cells were grown under standard CO2 and temperature conditions. Confluence of cell was avoided to prevent loss of differentiation.
(§2) Cells were seeded into 48-well plates at a concentration of 0.3 × 10^5 cells per well. […] After exposition, cells were trypsinised and harvested for toxicity evaluation. To avoid an underestimation of the number of dead cells, the cells that were detached from the plates during exposure to the compounds were collected and considered. For each condition tested, at least four technical replicates were evaluated. In each well, at least 100 cells were considered.

[2] = test system: CFBE41O^− cells; format: cell-based; details: 24 h incubation, mean ± SEM
Protocol: as §1, §2

[3] = test system: FRT cells; format: cell-based; details: 24 h incubation, mean ± SEM
Protocol: as §1, §2

[4] = Trypan blue cell viability at the working concentrations, all three cell lines; format: cell-based; details: human (HEK-t, CFBE41O^−) and rat (FRT), in all three cell lines; for viability at 24 h, 3 µM: at 3 μM
Protocol: as §1, §2

[5] = biological target: T1, F508del CFTR (Homo sapiens, UniProt P13569, DEL508-508); assay: YFP functional assay in FRT cells
T1 sequence (P13569 with tags, fused parts or gaps DEL508-508): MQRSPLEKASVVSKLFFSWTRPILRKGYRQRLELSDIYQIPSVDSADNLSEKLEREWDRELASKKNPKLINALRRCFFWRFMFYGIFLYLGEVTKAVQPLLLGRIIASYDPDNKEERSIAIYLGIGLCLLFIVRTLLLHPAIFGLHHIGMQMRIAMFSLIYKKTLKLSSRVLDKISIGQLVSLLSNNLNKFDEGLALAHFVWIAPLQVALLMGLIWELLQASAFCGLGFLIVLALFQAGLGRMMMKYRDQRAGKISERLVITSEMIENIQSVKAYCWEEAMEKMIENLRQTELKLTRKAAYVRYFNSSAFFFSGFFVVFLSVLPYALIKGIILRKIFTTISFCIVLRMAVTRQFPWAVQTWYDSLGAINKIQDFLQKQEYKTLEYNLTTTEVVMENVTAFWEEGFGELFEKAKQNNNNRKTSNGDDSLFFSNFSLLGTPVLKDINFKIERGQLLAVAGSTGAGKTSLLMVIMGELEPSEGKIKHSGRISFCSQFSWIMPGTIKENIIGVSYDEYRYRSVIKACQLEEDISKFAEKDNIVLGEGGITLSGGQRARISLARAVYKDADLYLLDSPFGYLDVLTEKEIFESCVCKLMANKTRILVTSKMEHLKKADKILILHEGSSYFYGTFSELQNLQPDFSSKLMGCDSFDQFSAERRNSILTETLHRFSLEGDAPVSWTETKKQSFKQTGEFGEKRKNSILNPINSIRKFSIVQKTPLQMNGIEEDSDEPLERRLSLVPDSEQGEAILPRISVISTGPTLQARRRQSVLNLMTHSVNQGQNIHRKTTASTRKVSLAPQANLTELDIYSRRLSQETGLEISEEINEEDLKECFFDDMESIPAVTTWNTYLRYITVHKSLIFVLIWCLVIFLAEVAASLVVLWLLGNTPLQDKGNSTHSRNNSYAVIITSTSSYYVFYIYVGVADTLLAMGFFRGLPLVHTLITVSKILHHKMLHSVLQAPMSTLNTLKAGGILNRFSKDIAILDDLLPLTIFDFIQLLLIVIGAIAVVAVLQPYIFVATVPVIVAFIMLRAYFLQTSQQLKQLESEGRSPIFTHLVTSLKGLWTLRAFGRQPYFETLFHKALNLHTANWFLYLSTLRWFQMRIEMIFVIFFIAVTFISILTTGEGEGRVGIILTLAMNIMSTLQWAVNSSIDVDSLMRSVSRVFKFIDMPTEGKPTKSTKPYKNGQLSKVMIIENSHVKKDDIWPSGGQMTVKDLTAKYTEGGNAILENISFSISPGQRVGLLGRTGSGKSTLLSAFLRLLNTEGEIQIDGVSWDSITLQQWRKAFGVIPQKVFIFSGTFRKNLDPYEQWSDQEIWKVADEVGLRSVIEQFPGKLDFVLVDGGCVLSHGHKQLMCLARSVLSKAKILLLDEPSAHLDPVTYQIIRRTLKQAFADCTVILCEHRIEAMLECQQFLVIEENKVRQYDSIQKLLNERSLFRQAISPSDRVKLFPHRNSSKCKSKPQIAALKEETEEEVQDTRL
Protocol: (§3) The YFP functional assay was applied to assess whether the increase in protein expression induced by treatment with the compounds under investigation correlated with an increase in F508del CFTR channel activity.
(§4) Cells were then incubated with 60 µL PBS plus forskolin (20 µM) and VX-770 (1 µM) for 25 min to maximally stimulate F508del-CFTR. The cells were then transferred to a microplate reader (Tristar2 S, Berthold Technologies, Bad Wildbad, Germany) equipped with 485 nm excitation and 535 nm emission filters.
(§5) Iodide influx was detected as fluorescence quenching as the I^− anion bound to intracellular YFP. After background subtraction and normalisation to the average fluorescence before NaI addition, the initial fluorescence decay rate (QR) was derived by fitting the signal with an exponential function.

[6] = biological target: T1, F508del CFTR; assay: YFP functional assay in CFBE41O^− cells
Protocol: as §3, §4, §5

[7] = biological target: MSD1 CFTR domain (Homo sapiens, UniProt P13569); assay: Western blot of CFTR single domain MSD1 in HEK-t cells; details: 3 µM VX661, 3 µM VX445, 2 µM 2a, 7m, 7a, normalised to actin and to untreated domain (times of DMSO control), mean ± sem
Chain of MSD1 CFTR domain (P13569 1-388): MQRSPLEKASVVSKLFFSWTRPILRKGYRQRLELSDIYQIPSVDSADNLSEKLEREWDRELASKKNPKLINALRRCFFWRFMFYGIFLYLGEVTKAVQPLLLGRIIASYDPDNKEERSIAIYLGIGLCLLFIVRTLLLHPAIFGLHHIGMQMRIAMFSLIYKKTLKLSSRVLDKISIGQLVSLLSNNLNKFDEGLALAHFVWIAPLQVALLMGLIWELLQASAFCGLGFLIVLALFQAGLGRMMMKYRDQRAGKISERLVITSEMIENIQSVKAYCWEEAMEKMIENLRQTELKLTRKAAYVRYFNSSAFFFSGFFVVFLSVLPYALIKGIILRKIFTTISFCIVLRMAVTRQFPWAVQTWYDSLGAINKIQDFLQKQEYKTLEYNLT

[8] = biological target: F508del NBD1 (Homo sapiens, UniProt P13569, DEL508-508); assay: Cycloheximide chase assay of F508del NBD1 in HEK-t cells; details: for effect on stability / half-life of F508del NBD1 versus DMSO control: cycloheximide chase, result in words; for F508del NBD1 expression after cycloheximide, relative to time 0: 3 µM VX661/VX445, 2 µM 2a/7m/7a, mean ± sem
Chain of F508del NBD1 (P13569 with tags, fused parts or gaps DEL508-508): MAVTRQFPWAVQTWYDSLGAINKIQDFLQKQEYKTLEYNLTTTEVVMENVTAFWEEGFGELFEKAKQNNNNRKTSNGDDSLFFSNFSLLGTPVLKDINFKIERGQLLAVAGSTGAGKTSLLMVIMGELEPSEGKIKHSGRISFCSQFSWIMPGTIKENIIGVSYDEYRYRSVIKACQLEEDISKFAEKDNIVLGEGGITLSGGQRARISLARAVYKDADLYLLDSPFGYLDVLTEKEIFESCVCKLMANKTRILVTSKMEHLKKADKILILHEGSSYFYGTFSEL
Protocol: The stability of NBD1-F508del was evaluated according to a previously established procedure [38, 50, 51]. […] Cells were harvested at six different time points (after 0, 1, 2, 4, 6, and 8 h), and samples of whole-cell SDS extracts were subjected to immunoblot analysis.

[9] = biological target: T1, F508del CFTR; parameters: Assessing the Impact of Corrector Combinations on Full-Length F508del CFTR Function; expressed in transfected cells; host or cells: Fisher rat thyroid (FRT) cells; human bronchial epithelial CFBE41o- cells; details: Figure 1B; read-out: corrector half-maximal effective concentration (EC50); cited from earlier work
[10] = biological target: R domain of CFTR (Homo sapiens, UniProt P13569); assay: Western blot of CFTR R domain in HEK-t cells; details: 3 µM VX661, 3 µM VX445, 2 µM 2a, 7m, 7a, normalised to actin and to untreated domain, mean ± sem
Chain of R domain of CFTR (P13569 645-834): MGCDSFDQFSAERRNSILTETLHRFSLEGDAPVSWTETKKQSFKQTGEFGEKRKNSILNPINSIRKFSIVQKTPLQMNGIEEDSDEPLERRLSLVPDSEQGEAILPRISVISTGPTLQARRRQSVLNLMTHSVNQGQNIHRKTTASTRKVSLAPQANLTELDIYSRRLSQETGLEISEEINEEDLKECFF

[11] = biological target: WT NBD1 CFTR domain (Homo sapiens, UniProt P13569); assay: Western blot of CFTR single domain WT NBD1 in HEK-t cells; details: 3 µM VX661, 3 µM VX445, 2 µM 2a, 7m, 7a, normalised to actin and to untreated domain, mean ± sem
Chain of WT NBD1 CFTR domain (P13569 348-633): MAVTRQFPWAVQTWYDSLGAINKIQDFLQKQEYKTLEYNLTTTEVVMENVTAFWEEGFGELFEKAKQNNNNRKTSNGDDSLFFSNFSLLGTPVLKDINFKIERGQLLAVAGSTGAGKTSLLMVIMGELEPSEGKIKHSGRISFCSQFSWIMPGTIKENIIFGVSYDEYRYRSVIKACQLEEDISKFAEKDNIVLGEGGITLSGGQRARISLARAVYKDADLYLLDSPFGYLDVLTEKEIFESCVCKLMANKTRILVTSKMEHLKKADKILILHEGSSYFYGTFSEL

[12] = 3 μM VX661, 3 μM VX445, 2 μM 2a, 7m, 7a, 18 h, forskolin + VX-770 stimulation

Row | SMILES | TD50 (concentration required to achieve half maximum toxicity) [1] [µM] | TD50 (concentration required to achieve half maximum toxicity) [2] [µM] | TDMax (maximum toxicity) [2] [µM] | TD50 (concentration required to achieve half maximum toxicity) [3] [µM] | TDMax (maximum toxicity) [3] [µM] | F508del NBD1 expression level, % of the initial level ([8]; 2 h after cycloheximide) [%] | F508del NBD1 expression level, % of the initial level ([8]; 4 h after cycloheximide) [%] | F508del NBD1 expression level, % of the initial level ([8]; 6 h after cycloheximide) [%] | effect on stability / half-life of F508del NBD1 versus DMSO control [8] | F508del NBD1 expression after cycloheximide, relative to time 0 ([8]; time 0 h) | F508del NBD1 expression after cycloheximide, relative to time 0 ([8]; time 1 h) | F508del NBD1 expression after cycloheximide, relative to time 0 ([8]; time 2 h) | F508del NBD1 expression after cycloheximide, relative to time 0 ([8]; time 4 h) | F508del NBD1 expression after cycloheximide, relative to time 0 ([8]; time 6 h) | F508del NBD1 expression after cycloheximide, relative to time 0 ([8]; time 8 h) | viability at 24 h, 3 µM [4] [%] | R domain expression level [10] | WT NBD1 expression level [11] | also measured
1 | O=C(c1ccccc1)c1sc(NC(=O)C2(c3ccc4c(c3)OCO4)CC2)nc1-c1ccccc1 [2a] | 2.44 ± 1.03 | 10.11 ± 1.80 | 14.44 ± 0.06 | 9.24 ± 2.25 | 20.56 ± 0.06 | 78 | 63 | 45 | significant increase; also recorded: significantly higher | 1.00 ± 0.08 | 0.87 ± 0.05 | 0.78 ± 0.08 | 0.63 ± 0.03 | 0.45± 0.06 | 0.34 ± 0.03 | – | – | – | TDMax (maximum toxicity) [1]: 5.78 ± 0.04; viability at 24 h, 2 µM ([4]; at 2 μM): ≥ 90%; increase of YFP initial quenching rate (QR, iodide influx) over the control condition [5, 12]: significantly increased; F508del CFTR channel activity (QR) of double combinations with VX445, compared with VX445 alone ([5]; result in words): none of the combinations with compound 2a produced an effect greater; F508del CFTR channel activity (QR) of double combinations with VX661, compared with VX661 alone ([5]; result in words): none of the combinations with compound 2a produced an effect greater; increase of YFP initial quenching rate (QR, iodide influx) over the control condition [6, 12]: significantly increased; F508del CFTR channel activity (QR) of double combinations with VX445, compared with VX445 alone ([6]; result in words): none of the combinations with compound 2a produced an effect greater; F508del CFTR channel activity (QR) of double combinations with VX661, compared with VX661 alone ([6]; result in words): none of the combinations with compound 2a produced an effect greater; MSD1 expression level [7]: 1.04 ± 0.05
2 | CSc1cccc(Nc2nc(-c3cccc(Cl)c3)cs2)c1 [FCG] | – | – | – | – | – | – | – | – | – | – | – | – | – | – | – | – | – | – | EC50 [9]: 5.3 µM
3 | Cc1nn(C)cc1S(=O)(=O)NC(=O)c1ccc(-n2ccc(OCC(C)(C)C(F)(F)F)n2)nc1N1C[C@@H](C)CC1(C)C [VX445, elexacaftor] | 9.60 ± 2.25 | 11.75 ± 3.42 | 23.60 ± 0.07 | 4.29 ± 0.32 | 10.79 ± 0.01 | 65 | 42 | 27 | did not prolong the half-life | 1.00 ± 0.04 | 0.75 ± 0.12 | 0.65 ± 0.07 | 0.42 ± 0.09 | 0.27 ± 0.05 | 0.14 ± 0.03 | ≥ 90 | 1.01 ± 0.04 | 1.02 ± 0.18 | –
4 | CC(C)(CO)c1cc2cc(NC(=O)C3(c4ccc5c(c4)OC(F)(F)O5)CC3)c(F)cc2n1C[C@@H](O)CO [VX661, tezacaftor] | 27.15 ± 17.88 | 7.51 ± 2.22 | 15.62 ± 0.06 | 11.09 ± 3.22 | 23.59 ± 0.08 | 62 | 45 | 26 | did not prolong the half-life | 1.00 ± 0.02 | 0.73 ± 0.12 | 0.62 ± 0.13 | 0.45 ± 0.11 | 0.26 ± 0.08 | 0.09 ± 0.03 | ≥ 90 | 1.06± 0.09 | 1.00± 0.15 | –

Reference: PMC10748060, “In Silico and In Vitro Evaluation of the Mechanism of Action of Three VX809-Based Hybrid Derivatives as Correctors of the F508del CFTR Protein” (Pharmaceuticals, 2023)
